Holding throughout (assay): NCI tumour cell line growth inhibition, 48 h
Assay [1] relates to UACC-257 melanoma.
The test system of assay [2] is OVCAR-8 ovarian.
Assay [3] deals with SK-MEL-5 melanoma.
Assay [4] concerns HCT-15 colon.
In assay [5] the test system is HL-60(TB) leukemia.
Assay [6] has as its system OVCAR-4 ovarian.
The test system of assay [7] is SF-295 CNS.
Assay [8] deals with NCI-H522 lung.
Assay [9] has as its system MALME-3M melanoma.
The subject of assay [10] is LOX IMVI melanoma.

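Five compound concentrations were applied to cells in 96-well plates for 48 hours; endpoints were derived by simple linear interpolation of the resulting dose-response curve. Here, GI50 denotes the concentration required for 50% inhibition of growth. At the TGI there is no net growth.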

As for `COC1/C=C/C(C)C(O)CC(O)/C=C/C(C)C(C(C)C(OC)C(C)CCC(=O)C(C)C(C/C=C/N(C)C=O)OC)OC(=O)/C=C/C=C(\C)CC(OC)CC2=CC(=O)O[C@@H](C(C)C(OC)C1)[C@H]2O` (stereo not given in full), the TGI in [1] was 0.169 µM; in assay [2] it was 0.475 µM; in [3], less than 0.005 µM; in assay [4], 0.0893 µM; in assay [5], 0.252 µM; in assay [6], 1.54 µM. For the same compound, the results for the TGI in assay [7] and in assay [8] were less than 0.005 µM and 0.093 µM, respectively.
As to `N#Cc1c(-c2ccc([N+](=O)[O-])cc2)c(C#N)c(=O)n(NS(=O)(=O)c2ccccc2)c1S`, the TGI is more than 100 µM in assay [1]; more than 100 µM in assay [2]; 30.4 µM in assay [3]; more than 100 µM in assay [4]; more than 100 µM in [9]; more than 100 µM in [6]. Moreover, the TGI is 38 µM in [10], more than 100 µM in [7] and 42.4 µM in assay [8].
For `CCOP(=O)(/C=C/n1cc(C)c(=O)[nH]c1=O)OCC`, the TGI in assay [1], in assay [2], in assay [3], in [4], in [5] and in [6] was more than 100 µM each time. In addition, the TGI in assay [10], in [7] and in [8] was more than 100 µM throughout.
Regarding `COP(=O)(OC)OCN(C)CC/C=C(\C)CC/C=C(\C)CCC=C(C)C`, the TGI in [1] was 19.2 µM; in assay [2] it was 29.5 µM; in [3], 25.3 µM; in assay [4], 30.3 µM; in assay [9] it was 28.2 µM; in assay [6], more than 100 µM. The TGI came to 29.3 µM in assay [10], 32.5 µM in assay [7] and 26.1 µM in assay [8].
`COC(=O)C1=C(CCCCO[Si](C)(C)C(C)(C)C)NC(=O)N2[C@H](CCOCc3ccccc3)CC[C@@H]12`: the TGI was more than 100 µM in [1]; 28.3 µM in assay [3]; more than 100 µM in assay [4]; more than 100 µM in assay [9]; more than 100 µM in assay [6]; more than 100 µM in [7]. For the same compound, the TGI in [8] was more than 100 µM.
For the compound `O=C1c2cc3c(cc2-c2c1c1cc(F)c(F)cc1c(=O)n2CCCn1ccnc1)OCO3`, the GI50 in assay [1] is 0.0969 µM; in assay [2] it was 0.022 µM; in assay [3], 0.02 µM; in assay [4], 0.117 µM; in assay [5], 0.0113 µM; in [9] it was 0.0856 µM. For the same compound, the GI50 was 0.27 µM in assay [6], less than 0.01 µM in [7] and 0.0124 µM in assay [8]. In addition, the TGI in [1] was 0.65 µM; in assay [2], more than 100 µM; in assay [3], 0.0852 µM; in assay [4], more than 100 µM; in assay [5], 16.6 µM; in assay [9], 1.21 µM. The values for the TGI in [6], in [7] and in [8] were more than 100 µM, 0.0133 µM and 0.432 µM, respectively.
On to `COc1cc2c(cc1O)C1Cc3ccc(OC)c(O)c3C[N+]1(C)CC2` (stereo not given), for which the TGI in assay [2], in assay [3], in assay [4], in assay [5], in [9] and in assay [6] was more than 100 µM each time. The TGI in assay [10] and in assay [7] was more than 100 µM throughout.
As to `Cc1cn(CCCCCCOC(=O)NC(CCCNC(N)=O)C(=O)O)c(=O)[nH]c1=O` (stereo not given), the TGI in assay [1], in assay [2], in assay [4], in [5], in assay [6] and in assay [10] was more than 100 µM each time. In addition, the TGI in assay [7] is more than 100 µM.
For `C[s+]1c2ccccc2c2ccccc21`, the TGI in [2], in [3], in assay [4], in assay [5], in assay [9] and in assay [6] was more than 100 µM each time. Also, the TGI in assay [10], in assay [7] and in [8] was more than 100 µM each time.
With `COc1ccc(CCNC(=O)Cc2ccccc2CO)cc1OC`, the TGI in assay [1], in assay [2], in assay [3], in [4], in assay [5] and in assay [6] was more than 100 µM each time. The TGI in assay [10], in assay [7] and in assay [8] was more than 100 µM in each case.
Consider `C[C@H]1S[C@@H](c2ccc(Cl)cc2Cl)N(NC(=O)c2ccncc2)C1=O`, for which the TGI in [2], in [3], in assay [4], in assay [5], in assay [9] and in assay [6] was more than 100 µM in each case. In addition, in assay [8], the TGI is more than 100 µM.
As for `CCC1(c2ccc(N3C(=O)c4cccc5cc([N+](=O)[O-])cc(c45)C3=O)cc2)CCC(=O)NC1=O` (stereo not given), the TGI in assay [1] is more than 100 µM; in [2], 28 µM; in assay [3], more than 100 µM; in [4] it was more than 100 µM; in assay [9], 92.2 µM; in assay [6] it was 42.4 µM. Besides, the TGI in [10] was more than 70.6 µM; in [7], 41.4 µM; in assay [8], 35.1 µM.
In the case of `CC1OC(OC2C(O[C@H]3CC[C@@]4(C)C(=CC[C@H]5[C@@H]6C[C@@H]7O[C@]8(CC[C@@H](C)CO8)[C@@H](C)[C@@H]7[C@@]6(C)CC[C@@H]54)C3)OC(CO)C(O)C2OC2OC(CO)C(O)C(O)C2O)C(O)C(O)C1O` (stereo not given in full), the TGI in assay [1] is 3.65 µM; in assay [2] it was more than 100 µM; in assay [3] it was 4.36 µM; in assay [4], 4.03 µM; in [9], 3.26 µM; in assay [6], 3.31 µM. The TGI in [10] is 5.9 µM; in assay [7], 4.41 µM; in assay [8] it was 3.42 µM.
In the case of `COc1cc2c[n+]3c4c(c2c(OC)c1OC)CCCC4CC3` (stereo not given), the TGI is more than 100 µM in [1]; 46.9 µM in assay [3]; more than 100 µM in assay [4]; 46.9 µM in assay [9]; more than 100 µM in assay [6]; more than 100 µM in assay [7]. The compound further yielded a TGI in [8] of more than 100 µM.

The values are drawn from PubChem BioAssay (NCI).
